pIC50, pKi: −log10 of the molar value.
Columns and labels:
H2 = H2 (Homo sapiens, UniProt P25021); assay: Affinity to brain targets (panel); format: binding; details: H2: histamine
VMAT = assay: Affinity to brain targets (panel); format: binding; details: VMAT (VMAT 1,2): vesicular monoamine transporter
DAT = DAT (Homo sapiens, UniProt Q01959); assay: Affinity to brain targets (panel); format: binding; details: DAT: dopamine transporters
Ca++ channel = assay: Affinity to brain targets (panel); format: binding
MDR1 = MDR1 (Homo sapiens, UniProt P08183); assay: Affinity to brain targets (panel); format: binding; details: MDR1: multidrug resistance
5-HT2A-2C = assay: Affinity to brain targets (panel); format: binding
Adenosine = assay: Affinity to brain targets (panel); format: binding; details: Adenosine (A)
MOR = MOR (Homo sapiens, UniProt P35372); assay: Affinity to brain targets (panel); format: binding; details: MOR: mu opioid receptor
Sequence of MOR (P35372 whole entry): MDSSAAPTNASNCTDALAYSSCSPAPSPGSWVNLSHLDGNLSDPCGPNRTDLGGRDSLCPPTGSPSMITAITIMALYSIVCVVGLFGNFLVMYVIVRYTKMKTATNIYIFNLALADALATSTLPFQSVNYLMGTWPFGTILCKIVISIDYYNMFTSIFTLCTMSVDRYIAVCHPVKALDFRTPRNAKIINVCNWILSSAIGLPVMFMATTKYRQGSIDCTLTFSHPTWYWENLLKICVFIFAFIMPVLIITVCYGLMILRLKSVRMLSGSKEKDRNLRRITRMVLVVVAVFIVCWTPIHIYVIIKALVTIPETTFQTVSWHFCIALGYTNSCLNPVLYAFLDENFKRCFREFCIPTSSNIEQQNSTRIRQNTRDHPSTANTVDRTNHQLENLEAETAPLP

M = assay: Affinity to brain targets (panel); format: binding; details: M: muscarinic
NOP = NOP (Homo sapiens, UniProt P41146); assay: Affinity to brain targets (panel); format: binding
Sequence of NOP (P41146 whole entry): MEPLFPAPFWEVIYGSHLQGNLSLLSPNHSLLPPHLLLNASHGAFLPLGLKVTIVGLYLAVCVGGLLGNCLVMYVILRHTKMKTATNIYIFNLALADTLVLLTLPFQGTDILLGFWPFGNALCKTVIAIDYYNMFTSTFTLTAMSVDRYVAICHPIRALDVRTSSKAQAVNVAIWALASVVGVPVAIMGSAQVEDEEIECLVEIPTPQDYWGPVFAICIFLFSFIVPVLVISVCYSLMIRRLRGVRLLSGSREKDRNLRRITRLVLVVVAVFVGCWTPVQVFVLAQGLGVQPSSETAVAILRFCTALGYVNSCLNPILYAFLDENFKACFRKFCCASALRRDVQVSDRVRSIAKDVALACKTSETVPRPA

5-HT3-7 = assay: Affinity to brain targets (panel); format: binding
Microtubule = details: MT; reference 12; cited from earlier work
panel of kinases = details: cited from earlier work
α1A-1C = assay: Affinity to brain targets (panel); format: binding
H1 = H1 (Homo sapiens, UniProt P35367); assay: Affinity to brain targets (panel); format: binding; details: H1: histamine
Sequence of H1 (P35367 whole entry): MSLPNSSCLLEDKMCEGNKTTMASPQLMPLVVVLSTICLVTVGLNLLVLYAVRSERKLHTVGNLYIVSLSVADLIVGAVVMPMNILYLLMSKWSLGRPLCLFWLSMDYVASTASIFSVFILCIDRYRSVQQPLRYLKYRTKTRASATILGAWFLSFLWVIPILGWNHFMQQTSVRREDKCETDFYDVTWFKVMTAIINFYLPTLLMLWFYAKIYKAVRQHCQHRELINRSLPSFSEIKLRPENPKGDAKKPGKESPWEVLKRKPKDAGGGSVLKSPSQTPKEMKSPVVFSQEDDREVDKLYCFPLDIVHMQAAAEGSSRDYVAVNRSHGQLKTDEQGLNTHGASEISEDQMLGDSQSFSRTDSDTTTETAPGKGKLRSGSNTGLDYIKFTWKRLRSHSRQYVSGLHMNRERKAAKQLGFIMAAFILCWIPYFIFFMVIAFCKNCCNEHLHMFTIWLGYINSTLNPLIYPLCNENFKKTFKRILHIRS

tumor xenografts = details: references 12-14; cited from earlier work
PKC = assay: Affinity to brain targets (panel); format: binding; details: PKC: Protein kinase C
NET = NET (Homo sapiens, UniProt P23975); assay: Affinity to brain targets (panel); format: binding; details: NET: norepinephrine transporter
Sequence of NET (P23975 whole entry): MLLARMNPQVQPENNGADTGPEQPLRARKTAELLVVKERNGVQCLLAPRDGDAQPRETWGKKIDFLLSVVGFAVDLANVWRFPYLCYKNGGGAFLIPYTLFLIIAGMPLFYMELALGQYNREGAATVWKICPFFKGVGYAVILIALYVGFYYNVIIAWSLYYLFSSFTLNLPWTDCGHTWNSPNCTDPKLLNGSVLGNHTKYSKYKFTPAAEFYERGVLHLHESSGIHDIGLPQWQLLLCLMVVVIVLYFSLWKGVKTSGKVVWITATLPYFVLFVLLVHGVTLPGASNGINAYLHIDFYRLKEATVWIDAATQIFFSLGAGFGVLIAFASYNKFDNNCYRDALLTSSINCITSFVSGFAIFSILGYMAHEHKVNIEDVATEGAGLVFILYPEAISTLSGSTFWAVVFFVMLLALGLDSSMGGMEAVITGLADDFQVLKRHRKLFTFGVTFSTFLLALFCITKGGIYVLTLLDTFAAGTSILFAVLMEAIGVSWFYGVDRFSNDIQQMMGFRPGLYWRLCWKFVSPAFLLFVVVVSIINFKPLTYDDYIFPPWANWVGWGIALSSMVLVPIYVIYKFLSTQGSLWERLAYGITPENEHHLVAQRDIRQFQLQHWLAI

KOR = KOR (Homo sapiens, UniProt P41145); assay: Affinity to brain targets (panel); format: binding; details: KOR: kappa opioid receptors
β1-3 = assay: Affinity to brain targets (panel); format: binding
mGluR = assay: Affinity to brain targets (panel); format: binding; details: mGluR (mGluRs): metabotropic glutamate receptors
NMDA = assay: Affinity to brain targets (panel); format: binding
NT = assay: Affinity to brain targets (panel); format: binding; details: NT: neurotrophin
AMPA = assay: Affinity to brain targets (panel); format: binding
Sigma1 = Sigma1 (Homo sapiens, UniProt Q99720); assay: Affinity to brain targets (panel); format: binding
Sequence of Sigma1 (Q99720 whole entry): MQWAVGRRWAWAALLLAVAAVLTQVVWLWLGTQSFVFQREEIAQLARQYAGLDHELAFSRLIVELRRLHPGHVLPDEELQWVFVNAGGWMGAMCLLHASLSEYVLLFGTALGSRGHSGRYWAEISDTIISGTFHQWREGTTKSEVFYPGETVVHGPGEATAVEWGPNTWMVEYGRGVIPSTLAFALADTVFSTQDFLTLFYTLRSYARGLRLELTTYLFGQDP

NK = assay: Affinity to brain targets (panel); format: binding; details: NK: neurokinin
KA = assay: Affinity to brain targets (panel); format: binding; details: KA (KAR): Kainate
SERT = SERT (Homo sapiens, UniProt P31645); assay: Affinity to brain targets (panel); format: binding; details: SERT: serotonin transporter
Sequence of SERT (P31645 whole entry, species assumed): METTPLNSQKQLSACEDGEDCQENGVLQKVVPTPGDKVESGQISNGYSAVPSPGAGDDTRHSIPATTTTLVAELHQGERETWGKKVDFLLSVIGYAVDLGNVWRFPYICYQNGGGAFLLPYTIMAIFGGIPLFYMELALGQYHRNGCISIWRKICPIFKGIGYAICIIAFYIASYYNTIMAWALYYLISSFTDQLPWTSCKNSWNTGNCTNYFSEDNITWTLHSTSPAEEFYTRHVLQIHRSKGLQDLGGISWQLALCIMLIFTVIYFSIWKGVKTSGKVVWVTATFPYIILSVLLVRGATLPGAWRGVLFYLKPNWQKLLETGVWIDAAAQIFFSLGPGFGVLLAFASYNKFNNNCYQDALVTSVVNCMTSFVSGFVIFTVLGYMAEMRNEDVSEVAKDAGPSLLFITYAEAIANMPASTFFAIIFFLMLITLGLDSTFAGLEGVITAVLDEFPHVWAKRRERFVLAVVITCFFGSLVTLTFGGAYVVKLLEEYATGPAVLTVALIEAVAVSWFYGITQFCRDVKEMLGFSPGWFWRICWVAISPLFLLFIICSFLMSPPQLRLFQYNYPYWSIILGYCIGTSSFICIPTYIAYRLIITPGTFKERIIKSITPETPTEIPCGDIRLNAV

EP = assay: Affinity to brain targets (panel); format: binding; details: EP: prostanoid receptors
BZP = assay: Affinity to brain targets (panel); format: binding; details: BZP: benzodiazepine
Smoothened = Smoothened (Homo sapiens, UniProt Q99835); assay: Affinity to brain targets (panel); format: binding
5-HT1A-1E = assay: Affinity to brain targets (panel); format: binding
α2A-2C = assay: Affinity to brain targets (panel); format: binding
I = assay: Affinity to brain targets (panel); format: binding
MT = details: listed under MT; reference 12; cited from earlier work
GABA = assay: Affinity to brain targets (panel); format: binding
PBR = PBR (Homo sapiens, UniProt P30536); assay: Affinity to brain targets (panel); format: binding
D1-D5 = assay: Affinity to brain targets (panel); format: binding
DOR = DOR (Homo sapiens, UniProt P41143); assay: Affinity to brain targets (panel); format: binding; details: DOR: delta opioid receptors
[1] = references 12-14; cited from earlier work
Sigma2 = Sigma2 (Homo sapiens, UniProt Q5BJF2); assay: Affinity to brain targets (panel); format: binding; details: Sigma2 (Sigma 2)
H3, H4 = assay: Affinity to brain targets (panel); format: binding; details: H3, H4: histamine
CB1, CB2 = assay: Affinity to brain targets (panel); format: binding
HERG = HERG (Homo sapiens, UniProt Q12809); assay: Affinity to brain targets (panel); format: binding; details: HERG: human ether-a-go-go
Sequence of HERG (Q12809 whole entry): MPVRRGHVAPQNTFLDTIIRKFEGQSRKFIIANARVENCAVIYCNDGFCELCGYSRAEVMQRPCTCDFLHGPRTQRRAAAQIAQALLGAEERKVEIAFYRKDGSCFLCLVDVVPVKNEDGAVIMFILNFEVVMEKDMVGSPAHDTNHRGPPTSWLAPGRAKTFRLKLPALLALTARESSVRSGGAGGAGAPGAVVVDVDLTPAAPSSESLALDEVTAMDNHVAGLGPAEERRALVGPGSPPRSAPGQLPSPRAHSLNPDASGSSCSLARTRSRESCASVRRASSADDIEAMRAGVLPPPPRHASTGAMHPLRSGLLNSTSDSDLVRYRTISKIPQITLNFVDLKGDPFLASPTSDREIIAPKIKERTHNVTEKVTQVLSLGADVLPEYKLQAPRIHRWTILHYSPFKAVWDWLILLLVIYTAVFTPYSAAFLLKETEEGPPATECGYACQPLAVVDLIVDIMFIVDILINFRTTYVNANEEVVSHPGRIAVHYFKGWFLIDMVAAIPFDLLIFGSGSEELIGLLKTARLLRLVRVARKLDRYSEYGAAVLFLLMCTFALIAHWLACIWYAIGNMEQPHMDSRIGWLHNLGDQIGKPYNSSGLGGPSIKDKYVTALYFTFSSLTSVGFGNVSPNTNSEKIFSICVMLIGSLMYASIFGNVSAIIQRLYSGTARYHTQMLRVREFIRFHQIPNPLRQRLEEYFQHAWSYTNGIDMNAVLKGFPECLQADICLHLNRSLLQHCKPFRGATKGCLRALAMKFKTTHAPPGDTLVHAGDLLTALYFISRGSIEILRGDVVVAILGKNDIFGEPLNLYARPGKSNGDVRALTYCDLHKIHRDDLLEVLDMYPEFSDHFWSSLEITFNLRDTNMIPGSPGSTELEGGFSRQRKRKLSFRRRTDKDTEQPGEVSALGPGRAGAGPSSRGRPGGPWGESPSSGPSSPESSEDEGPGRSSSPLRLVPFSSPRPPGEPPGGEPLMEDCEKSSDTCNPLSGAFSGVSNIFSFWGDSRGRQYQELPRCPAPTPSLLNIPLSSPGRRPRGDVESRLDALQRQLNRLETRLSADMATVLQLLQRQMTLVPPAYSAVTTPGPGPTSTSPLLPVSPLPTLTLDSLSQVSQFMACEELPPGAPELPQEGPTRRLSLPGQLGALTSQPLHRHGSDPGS

Oxytocin = target: T1, Oxytocin (Homo sapiens, UniProt P30559); assay: Affinity to brain targets (panel); format: binding
T1 sequence (P30559 1-389): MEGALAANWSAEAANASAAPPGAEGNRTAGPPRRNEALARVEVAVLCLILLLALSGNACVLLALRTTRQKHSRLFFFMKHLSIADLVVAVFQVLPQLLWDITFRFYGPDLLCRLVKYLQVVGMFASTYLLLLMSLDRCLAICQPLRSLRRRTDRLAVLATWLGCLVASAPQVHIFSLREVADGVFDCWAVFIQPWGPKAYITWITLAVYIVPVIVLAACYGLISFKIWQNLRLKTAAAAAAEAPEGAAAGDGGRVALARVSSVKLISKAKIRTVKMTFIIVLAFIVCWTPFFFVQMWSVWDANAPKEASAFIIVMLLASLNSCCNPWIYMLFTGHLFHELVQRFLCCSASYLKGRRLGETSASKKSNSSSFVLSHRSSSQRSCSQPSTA

Na+ Channel = assay: Affinity to brain targets (panel); format: binding

Sequence of H2 (P25021 whole entry): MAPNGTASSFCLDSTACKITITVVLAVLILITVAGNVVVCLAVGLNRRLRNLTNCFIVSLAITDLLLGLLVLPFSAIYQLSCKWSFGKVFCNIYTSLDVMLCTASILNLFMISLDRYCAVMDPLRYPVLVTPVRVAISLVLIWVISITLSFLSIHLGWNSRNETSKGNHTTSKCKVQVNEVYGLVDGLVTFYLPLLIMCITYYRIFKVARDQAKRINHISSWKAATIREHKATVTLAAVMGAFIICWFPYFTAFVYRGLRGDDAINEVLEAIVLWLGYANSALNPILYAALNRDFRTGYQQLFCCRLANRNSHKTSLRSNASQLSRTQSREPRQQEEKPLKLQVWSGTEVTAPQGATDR
Sequence of DAT (Q01959 whole entry, species assumed): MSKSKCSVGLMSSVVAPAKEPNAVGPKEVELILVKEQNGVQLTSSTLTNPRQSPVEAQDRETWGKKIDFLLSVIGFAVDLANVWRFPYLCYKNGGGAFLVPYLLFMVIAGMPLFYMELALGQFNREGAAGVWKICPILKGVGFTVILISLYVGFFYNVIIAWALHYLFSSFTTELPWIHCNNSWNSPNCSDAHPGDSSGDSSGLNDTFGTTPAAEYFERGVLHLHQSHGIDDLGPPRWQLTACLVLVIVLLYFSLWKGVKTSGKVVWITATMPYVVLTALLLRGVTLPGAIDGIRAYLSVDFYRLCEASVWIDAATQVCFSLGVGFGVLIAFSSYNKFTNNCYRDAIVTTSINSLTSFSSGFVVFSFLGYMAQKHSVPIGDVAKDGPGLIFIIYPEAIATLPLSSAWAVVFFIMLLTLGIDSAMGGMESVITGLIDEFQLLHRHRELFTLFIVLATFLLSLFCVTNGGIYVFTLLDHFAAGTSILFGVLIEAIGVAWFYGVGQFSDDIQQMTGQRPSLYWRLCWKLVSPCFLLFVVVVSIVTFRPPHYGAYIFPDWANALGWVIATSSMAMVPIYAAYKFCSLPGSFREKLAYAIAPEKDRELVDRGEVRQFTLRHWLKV

SMILES: COc1ccc(N(C)c2ncnc3occ(C)c23)cc1 [HD-800, reference compound]
- pKi (H2): < 5.00
- pKi (VMAT): < 5.00
- pKi (DAT): < 5.00
- pKi (Ca++ channel): < 5.00
- pKi (MDR1): < 5.00
- pKi (5-HT2A-2C): < 5.00
- pKi (Adenosine): < 5.00
- pKi (MOR): < 5.00
- pKi (M): < 5.00
- pKi (NOP): < 5.00
- pKi (5-HT3-7): < 5.00
- pIC50 (Microtubule): 8.49
- binding to a panel / variety of kinases (panel of kinases): selective
- pKi (α1A-1C): < 5.00
- pKi (H1): < 5.00
- tumor growth inhibition (TGI) compared with paclitaxel (tumor xenografts): higher tumor growth inhibition (TGI) than paclitaxel
- pKi (PKC): < 5.00
- pKi (NET): < 5.00
- pKi (KOR): < 5.00
- pKi (β1-3): < 5.00
- pKi (mGluR): < 5.00
- pKi (NMDA): < 5.00
- pKi (NT): < 5.00
- pKi (AMPA): < 5.00
- pKi (Sigma1): < 5.00
- pKi (NK): < 5.00
- pKi (KA): < 5.00
- pKi (SERT): < 5.00
- pKi (EP): < 5.00
- pKi (BZP): < 5.00
- pKi (Smoothened): < 5.00
- pKi (5-HT1A-1E): < 5.00
- pKi (α2A-2C): < 5.00
- pKi (I): < 5.00
- GI50 (MT): < 0.01 µM
- pKi (GABA): < 5.00
- pKi (PBR): 5.63
- pKi (D1-D5): < 5.00
- pKi (DOR): < 5.00
- BBB penetration [1]: BBB penetrant
- pKi (Sigma2): < 5.00
- pKi (H3, H4): < 5.00
- pKi (CB1, CB2): < 5.00
- pKi (HERG): < 5.00
- pKi (Oxytocin): < 5.00
- pKi (Na+ Channel): < 5.00
